Legend:
Type in all cases: in vivo
[1] = tested on: ivyleaf morningglory (Ipomoea hederacea, IPOHE); assay: Pre-emerge test, greenhouse herbicide activity screening; conditions: rated 14 days after application, 0 = no damage, 100 = complete death
In short: (§1)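 Compounds in acetone were track-sprayed at 15–1000 g ai/ha: pre-emergence onto soil sown the previous day, then top-watered to incorporate and later bottom-watered; post-emergence onto 2–3 leaf plants with 0.25% v/v surfactant, bottom-watered only. Ratings on a 0–100 phytotoxicity scale were taken at day 14.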

[2] = tested on: barnyardgrass (Echinochloa crus-galli, ECHCG); assay: as above; conditions: rated 14 days after application, 0 = no damage, 100 = complete death
In short: as §1

[3] = tested on: johnsongrass (Sorghum halepense, SORHA); assay: as above; conditions: rated 14 days after application, 0 = no damage, 100 = complete death
In short: as §1

[4] = tested on: lambsquarters (Chenopodium album, CHEAL); assay: as above; conditions: rated 14 days after application, 0 = no damage, 100 = complete death
In short: as §1

[5] = tested on: velvetleaf (Abutilon theophrasti, ABUTH); assay: as above; conditions: rated 14 days after application, 0 = no damage, 100 = complete death
In short: as §1

[6] = tested on: sicklepod (Cassia obtusifolia, CASOB); assay: as above; conditions: rated 14 days after application, 0 = no damage, 100 = complete death
In short: as §1

[7] = tested on: green foxtail (Setaria viridis, SETVI); assay: as above; conditions: rated 14 days after application, 0 = no damage, 100 = complete death
In short: as §1

[8] = tested on: large crabgrass (Digitaria sanguinalis, DIGSA); assay: as above; conditions: rated 14 days after application, 0 = no damage, 100 = complete death
In short: as §1

[9] = tested on: ivyleaf morningglory (Ipomoea hederacea, IPOHE); assay: Post-emerge test, greenhouse herbicide activity screening; conditions: post-emerge, 14 days after application, rating scale 0-100
In short: (§2)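 Plants grown in 10 cm pots of sandy loam mix received acetone-dissolved compounds through a moving flat-fan nozzle. Doses ranged from 15 to 1000 g ai/ha. Pre-emerge pots were seeded one day earlier, post-emerge pots 8–21 days earlier. Fourteen days on, each pot was graded 0–100 for damage.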

[10] = tested on: barnyardgrass (Echinochloa crus-galli, ECHCG); assay: as above; conditions: post-emerge, 14 days after application, rating scale 0-100
In short: as §2

[11] = tested on: johnsongrass (Sorghum halepense, SORHA); assay: as above; conditions: post-emerge, 14 days after application, rating scale 0-100
In short: as §2

[12] = tested on: lambsquarters (Chenopodium album, CHEAL); assay: as above; conditions: post-emerge, 14 days after application, rating scale 0-100
In short: as §2

[13] = tested on: velvetleaf (Abutilon theophrasti, ABUTH); assay: as above; conditions: post-emerge, 14 days after application, rating scale 0-100
In short: as §2

[14] = tested on: sicklepod (Cassia obtusifolia, CASOB); assay: as above; conditions: post-emerge, 14 days after application, rating scale 0-100
In short: as §2

[15] = tested on: redroot pigweed (Amaranthus retroflexus, AMARE); assay: as above; conditions: post-emerge, 14 days after application, rating scale 0-100
In short: as §2

[16] = tested on: green foxtail (Setaria viridis, SETVI); assay: as above; conditions: post-emerge, 14 days after application, rating scale 0-100
In short: as §2

[17] = tested on: large crabgrass (Digitaria sanguinalis, DIGSA); assay: as above; conditions: post-emerge, 14 days after application, rating scale 0-100
In short: as §2

[18] = tested on: redroot pigweed (Amaranthus retroflexus, AMARE); assay: Pre-emerge test, greenhouse herbicide activity screening; conditions: rated 14 days after application, 0 = no damage, 100 = complete death
In short: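 Compounds in acetone were track-sprayed at 15-1000 g ai/ha (187 l/ha) on sandy loam pots: pre-emerge one day after seeding, post-emerge at 2-3 leaf stage with 0.25% v/v non-ionic surfactant. Phytotoxicity was rated 14 days later on a 0 (no damage) to 100 (complete death) scale.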

Cn1c(C(F)(F)F)cc(=O)n(-c2c(F)cc(Cl)c(OC(F)F)c2NC(=O)c2ccc3ccccc3c2)c1=O [Compound 2-115, 3-[4-chloro-3-difluoromethoxy-6-fluoro-2-(2-naphthoylamino)phenyl]-1-methyl-6-trifluoromethyl-2,4(1H, 3H)-pyrimidinedione]
Pre-emerge Herbicidal Activity, phytotoxicity rating (0-100), IPOHE ([1]; 63 g ai/ha): 0
Pre-emerge Herbicidal Activity, phytotoxicity rating (0-100), IPOHE ([1]; 125 g ai/ha): 90
Pre-emerge Herbicidal Activity, phytotoxicity rating (0-100), ECHCG ([2]; 63 g ai/ha): 80
Pre-emerge Herbicidal Activity, phytotoxicity rating (0-100), ECHCG ([2]; 125 g ai/ha): 95
Pre-emerge Herbicidal Activity, phytotoxicity rating (0-100), SORHA ([3]; 63 g ai/ha): 20
Pre-emerge Herbicidal Activity, phytotoxicity rating (0-100), SORHA ([3]; 125 g ai/ha): 30
Pre-emerge Herbicidal Activity, phytotoxicity rating (0-100), CHEAL ([4]; 63 g ai/ha): 100
Pre-emerge Herbicidal Activity, phytotoxicity rating (0-100), CHEAL ([4]; 125 g ai/ha): 100
Pre-emerge Herbicidal Activity, phytotoxicity rating (0-100), ABUTH ([5]; 63 g ai/ha): 100
Pre-emerge Herbicidal Activity, phytotoxicity rating (0-100), ABUTH ([5]; 125 g ai/ha): 100
Pre-emerge Herbicidal Activity, phytotoxicity rating (0-100), CASOB ([6]; 63 g ai/ha): 20
Pre-emerge Herbicidal Activity, phytotoxicity rating (0-100), CASOB ([6]; 125 g ai/ha): 80
Pre-emerge Herbicidal Activity, phytotoxicity rating (0-100), SETVI ([7]; 63 g ai/ha): 90
Pre-emerge Herbicidal Activity, phytotoxicity rating (0-100), SETVI ([7]; 125 g ai/ha): 99
Pre-emerge Herbicidal Activity, phytotoxicity rating (0-100), DIGSA ([8]; 63 g ai/ha): 90
Pre-emerge Herbicidal Activity, phytotoxicity rating (0-100), DIGSA ([8]; 125 g ai/ha): 100
phytotoxicity rating IPOHE ([9]; 63 g ai/ha): 90
phytotoxicity rating IPOHE ([9]; 250 g ai/ha): 95
phytotoxicity rating ECHCG ([10]; 63 g ai/ha): 10
phytotoxicity rating ECHCG ([10]; 250 g ai/ha): 20
phytotoxicity rating SORHA ([11]; 63 g ai/ha): 0
phytotoxicity rating SORHA ([11]; 250 g ai/ha): 0
phytotoxicity rating CHEAL ([12]; 63 g ai/ha): 100
phytotoxicity rating CHEAL ([12]; 250 g ai/ha): 100
phytotoxicity rating ABUTH ([13]; 63 g ai/ha): 100
phytotoxicity rating ABUTH ([13]; 250 g ai/ha): 100
phytotoxicity rating CASOB ([14]; 63 g ai/ha): 90
phytotoxicity rating CASOB ([14]; 250 g ai/ha): 95
phytotoxicity rating AMARE ([15]; 63 g ai/ha): 100
phytotoxicity rating AMARE ([15]; 250 g ai/ha): 100
phytotoxicity rating SETVI ([16]; 63 g ai/ha): 0
phytotoxicity rating SETVI ([16]; 250 g ai/ha): 0
phytotoxicity rating DIGSA ([17]; 63 g ai/ha): 20
phytotoxicity rating DIGSA ([17]; 250 g ai/ha): 50
Pre-emerge Herbicidal Activity, phytotoxicity rating (0-100), AMARE ([18]; 63 g ai/ha): 100
Pre-emerge Herbicidal Activity, phytotoxicity rating (0-100), AMARE ([18]; 125 g ai/ha): 100

From patent US6355799B1, “Substituted benzene compounds, process for their preparation, and herbicidal and defoliant compositions containing them” (ISK Americas Incorporated, priority 1997, dated 2002)
